Source: patent US12343326B2, “Psychoactive medicines and their use for treating psychiatric and neurological conditions and disorders” (Transcend Therapeutics, Inc., priority 2021, dated 2025)
Read-outs that look alike come from different tables or passages of the source.

Assays:
168 GPCRs [1] = target: 168 GPCRs (Homo sapiens, UniProt P25024); experiment: β-arrestin based GPCR screen (PathHunter / GPCRmax), agonist mode; type: cell-based; parameters: host or cells: PathHunter cell lines
Method: (§1) For agonist determination, cells were incubated with sample to induce response. […] Vehicle concentration was 1%.

168 GPCRs [2] = target: 168 GPCRs (Homo sapiens, UniProt P32238); experiment: as above; type: cell-based; parameters: host or cells: PathHunter cell lines; conditions: CCKAR, Agonist
Method: as §1

168 GPCRs [3] = target: 168 GPCRs (Homo sapiens, UniProt P11229); experiment: as above; type: cell-based; parameters: host or cells: PathHunter cell lines; conditions: CHRM1, Agonist
Method: as §1

168 GPCRs [4] = target: T1, 168 GPCRs (Homo sapiens, UniProt Q01726); experiment: as above; type: cell-based; parameters: host or cells: PathHunter cell lines; conditions: MC1R
Method: as §1

168 GPCRs [5] = target: 168 GPCRs (Homo sapiens, UniProt Q16602); experiment: as above; type: cell-based; parameters: host or cells: PathHunter cell lines; conditions: Agonist
Method: as §1

168 GPCRs [6] = target: T2, 168 GPCRs (Homo sapiens, UniProt Q5NUL3); experiment: as above; type: cell-based; parameters: host or cells: PathHunter cell lines
T2 sequence (Q5NUL3 1-361): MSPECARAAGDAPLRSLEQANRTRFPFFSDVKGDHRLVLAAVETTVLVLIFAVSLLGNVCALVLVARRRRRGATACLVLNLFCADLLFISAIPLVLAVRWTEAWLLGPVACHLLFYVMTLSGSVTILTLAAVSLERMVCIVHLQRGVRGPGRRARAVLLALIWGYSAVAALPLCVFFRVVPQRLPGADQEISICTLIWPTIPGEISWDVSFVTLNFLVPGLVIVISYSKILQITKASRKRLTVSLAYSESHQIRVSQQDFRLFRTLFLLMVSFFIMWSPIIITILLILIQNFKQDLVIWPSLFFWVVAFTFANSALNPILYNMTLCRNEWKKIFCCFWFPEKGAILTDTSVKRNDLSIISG
Method: as §1

168 GPCRs [7] = target: 168 GPCRs (Homo sapiens, UniProt P49682); experiment: as above; type: cell-based; parameters: host or cells: PathHunter cell lines
Method: as §1

168 GPCRs [8] = target: 168 GPCRs (Homo sapiens, UniProt Q9NSD7); experiment: as above; type: cell-based; parameters: host or cells: PathHunter cell lines
Method: as §1

168 GPCRs [9] = target: 168 GPCRs (Homo sapiens, UniProt P08913); experiment: as above; type: cell-based; parameters: host or cells: PathHunter cell lines; conditions: ADRA2A, Agonist
Method: as §1

[10] = tested on: myelin basic protein (MBP); experiment: Immunohistochemistry of myelin basic protein; type: in vivo, rat; conditions: 10 mg/kg IP, 24 h
Method: Immunohistochemistry: The in-life portion of the study was conducted at WuXi Apptec (Cranbury, NJ). Sectioning and staining of brains took place at Neuroscience Associates (NSA, Knoxville, TN). […] Brains were post-fixed in PFA before shipment to NSA for processing and staining. Hemisected brains were mounted, sectioned and stained using standard protocols with myelin-basic protein primary antibody (MBP SMI-99, 1:5000, Biolegend, San Diego, CA) and anti-mouse biotinylated secondary antibody (BA-2001, Vector Laboratories, Newark, CA). Slides were imaged using a Huron Digital Pathology TissueScope LE120 whole slide scanning system. 20× objective was used with a 0.4 μm/pixel resolution.

[11] = target: serotonin transporter (SERT) (Rattus norvegicus, UniProt P31652); experiment: [3H]5HT uptake saturation in rat brain synaptosomes with or without methylone; type: biochemical; conditions: two concentrations of methylone
168 GPCRs [12] = target: T3, 168 GPCRs (Homo sapiens, UniProt Q96RI0); experiment: β-arrestin based GPCR screen (PathHunter / GPCRmax), antagonist mode
T3 sequence (Q96RI0 18-385): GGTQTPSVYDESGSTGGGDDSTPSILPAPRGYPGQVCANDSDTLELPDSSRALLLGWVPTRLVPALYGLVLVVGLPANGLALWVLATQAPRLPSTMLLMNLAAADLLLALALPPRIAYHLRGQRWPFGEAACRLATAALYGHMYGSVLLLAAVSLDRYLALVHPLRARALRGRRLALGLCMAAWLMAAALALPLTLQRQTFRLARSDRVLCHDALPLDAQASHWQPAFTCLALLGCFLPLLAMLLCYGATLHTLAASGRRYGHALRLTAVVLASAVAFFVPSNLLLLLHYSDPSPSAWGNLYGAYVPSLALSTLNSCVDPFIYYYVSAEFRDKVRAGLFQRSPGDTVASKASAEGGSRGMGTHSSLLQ

168 GPCRs [13] = target: 168 GPCRs (Homo sapiens, UniProt Q8TCW9); experiment: as above
168 GPCRs [14] = target: T1, 168 GPCRs; experiment: as above; conditions: MC1R
168 GPCRs [15] = target: 168 GPCRs (Homo sapiens, UniProt P61073); experiment: as above
168 GPCRs (Homo sapiens, UniProt P61073), sequence (P61073 whole entry): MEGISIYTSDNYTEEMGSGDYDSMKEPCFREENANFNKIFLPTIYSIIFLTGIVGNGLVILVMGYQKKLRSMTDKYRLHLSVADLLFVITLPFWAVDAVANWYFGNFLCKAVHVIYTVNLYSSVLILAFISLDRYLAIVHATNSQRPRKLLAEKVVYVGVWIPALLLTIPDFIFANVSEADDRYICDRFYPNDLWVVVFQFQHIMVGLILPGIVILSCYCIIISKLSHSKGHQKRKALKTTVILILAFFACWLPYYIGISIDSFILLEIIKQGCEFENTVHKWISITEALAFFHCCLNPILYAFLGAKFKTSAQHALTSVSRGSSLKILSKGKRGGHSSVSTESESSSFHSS

168 GPCRs (Homo sapiens, UniProt Q16602), sequence (Q16602 23-461): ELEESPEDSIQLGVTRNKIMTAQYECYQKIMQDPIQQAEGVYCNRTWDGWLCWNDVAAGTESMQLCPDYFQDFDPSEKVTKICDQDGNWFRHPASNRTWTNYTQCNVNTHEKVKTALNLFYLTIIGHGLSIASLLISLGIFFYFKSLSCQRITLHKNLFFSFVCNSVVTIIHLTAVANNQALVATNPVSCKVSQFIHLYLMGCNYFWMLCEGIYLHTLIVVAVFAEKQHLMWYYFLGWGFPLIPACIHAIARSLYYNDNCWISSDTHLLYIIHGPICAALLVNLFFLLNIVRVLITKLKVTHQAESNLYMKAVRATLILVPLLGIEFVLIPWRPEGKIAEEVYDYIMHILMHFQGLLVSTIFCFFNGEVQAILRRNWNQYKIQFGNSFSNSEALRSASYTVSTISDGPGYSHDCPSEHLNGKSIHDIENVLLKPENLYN
serotonin transporter (SERT), sequence (P31652 whole entry): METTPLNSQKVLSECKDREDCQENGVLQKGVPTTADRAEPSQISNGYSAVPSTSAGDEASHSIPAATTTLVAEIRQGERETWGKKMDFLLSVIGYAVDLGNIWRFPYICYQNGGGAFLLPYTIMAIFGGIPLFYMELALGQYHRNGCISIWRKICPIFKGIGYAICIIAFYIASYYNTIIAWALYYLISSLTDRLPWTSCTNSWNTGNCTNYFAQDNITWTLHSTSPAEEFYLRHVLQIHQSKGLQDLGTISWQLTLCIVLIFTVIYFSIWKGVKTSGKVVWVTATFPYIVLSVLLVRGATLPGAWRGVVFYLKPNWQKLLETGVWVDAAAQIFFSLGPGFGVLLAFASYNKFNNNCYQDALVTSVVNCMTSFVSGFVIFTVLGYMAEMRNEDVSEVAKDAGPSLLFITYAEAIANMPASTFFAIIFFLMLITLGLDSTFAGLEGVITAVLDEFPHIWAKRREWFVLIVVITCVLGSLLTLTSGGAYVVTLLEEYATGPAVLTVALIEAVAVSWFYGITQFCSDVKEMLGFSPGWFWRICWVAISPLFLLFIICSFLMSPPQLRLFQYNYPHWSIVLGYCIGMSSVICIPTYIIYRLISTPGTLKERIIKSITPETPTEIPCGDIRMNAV
T1 sequence (Q01726 whole entry): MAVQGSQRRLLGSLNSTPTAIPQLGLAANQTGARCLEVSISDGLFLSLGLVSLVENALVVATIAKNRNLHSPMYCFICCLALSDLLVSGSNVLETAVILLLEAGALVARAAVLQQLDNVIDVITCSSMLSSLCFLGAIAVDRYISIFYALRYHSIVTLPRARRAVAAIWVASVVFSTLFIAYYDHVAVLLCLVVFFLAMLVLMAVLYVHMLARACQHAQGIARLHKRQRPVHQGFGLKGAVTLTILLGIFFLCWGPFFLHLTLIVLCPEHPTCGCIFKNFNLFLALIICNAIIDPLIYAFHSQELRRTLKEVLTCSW
168 GPCRs (Homo sapiens, UniProt P49682), sequence (P49682 whole entry): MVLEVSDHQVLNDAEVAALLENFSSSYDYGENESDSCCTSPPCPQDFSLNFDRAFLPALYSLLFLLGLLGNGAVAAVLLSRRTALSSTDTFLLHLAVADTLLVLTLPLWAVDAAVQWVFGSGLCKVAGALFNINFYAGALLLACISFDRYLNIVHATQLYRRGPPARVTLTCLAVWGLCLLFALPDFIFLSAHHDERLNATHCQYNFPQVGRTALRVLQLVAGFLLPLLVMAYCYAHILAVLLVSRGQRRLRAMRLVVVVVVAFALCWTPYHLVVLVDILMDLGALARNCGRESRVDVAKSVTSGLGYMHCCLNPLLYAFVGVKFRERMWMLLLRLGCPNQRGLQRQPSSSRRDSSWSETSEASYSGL
168 GPCRs (Homo sapiens, UniProt Q9NSD7), sequence (Q9NSD7 whole entry): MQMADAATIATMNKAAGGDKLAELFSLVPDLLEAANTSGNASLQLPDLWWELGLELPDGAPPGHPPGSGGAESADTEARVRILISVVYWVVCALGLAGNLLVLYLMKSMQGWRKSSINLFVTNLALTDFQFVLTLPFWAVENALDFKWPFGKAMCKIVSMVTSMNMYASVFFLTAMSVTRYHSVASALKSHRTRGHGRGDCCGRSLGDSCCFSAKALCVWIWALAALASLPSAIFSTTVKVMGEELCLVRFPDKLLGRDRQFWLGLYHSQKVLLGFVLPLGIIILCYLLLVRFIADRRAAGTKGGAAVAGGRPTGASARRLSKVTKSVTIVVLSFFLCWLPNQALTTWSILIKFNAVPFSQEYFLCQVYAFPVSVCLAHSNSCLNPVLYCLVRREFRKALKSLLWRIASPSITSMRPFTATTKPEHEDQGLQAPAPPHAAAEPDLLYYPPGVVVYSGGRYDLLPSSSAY
168 GPCRs (Homo sapiens, UniProt P11229), sequence (P11229 whole entry): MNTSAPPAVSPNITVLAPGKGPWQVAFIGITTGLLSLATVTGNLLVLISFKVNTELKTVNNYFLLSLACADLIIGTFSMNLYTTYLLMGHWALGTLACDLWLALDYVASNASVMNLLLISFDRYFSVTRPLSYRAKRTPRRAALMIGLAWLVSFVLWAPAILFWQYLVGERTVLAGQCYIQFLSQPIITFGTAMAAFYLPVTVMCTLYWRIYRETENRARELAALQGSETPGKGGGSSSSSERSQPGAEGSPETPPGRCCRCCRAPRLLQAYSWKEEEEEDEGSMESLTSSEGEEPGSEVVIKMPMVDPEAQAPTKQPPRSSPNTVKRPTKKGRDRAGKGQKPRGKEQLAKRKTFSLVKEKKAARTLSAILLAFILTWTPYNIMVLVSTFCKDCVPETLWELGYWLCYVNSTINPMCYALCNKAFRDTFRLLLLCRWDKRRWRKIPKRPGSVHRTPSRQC
168 GPCRs (Homo sapiens, UniProt Q8TCW9), sequence (Q8TCW9 whole entry): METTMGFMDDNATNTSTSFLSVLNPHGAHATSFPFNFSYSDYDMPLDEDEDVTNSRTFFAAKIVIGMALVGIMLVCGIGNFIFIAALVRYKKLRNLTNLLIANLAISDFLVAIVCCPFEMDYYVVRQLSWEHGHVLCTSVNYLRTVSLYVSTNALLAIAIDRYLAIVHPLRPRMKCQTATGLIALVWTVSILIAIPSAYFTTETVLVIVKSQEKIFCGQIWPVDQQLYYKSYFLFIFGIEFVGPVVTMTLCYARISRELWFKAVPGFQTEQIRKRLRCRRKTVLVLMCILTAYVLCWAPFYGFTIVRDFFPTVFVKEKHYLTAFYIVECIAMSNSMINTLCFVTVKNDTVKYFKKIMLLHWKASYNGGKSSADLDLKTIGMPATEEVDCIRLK
168 GPCRs (Homo sapiens, UniProt P08913), sequence (P08913 whole entry): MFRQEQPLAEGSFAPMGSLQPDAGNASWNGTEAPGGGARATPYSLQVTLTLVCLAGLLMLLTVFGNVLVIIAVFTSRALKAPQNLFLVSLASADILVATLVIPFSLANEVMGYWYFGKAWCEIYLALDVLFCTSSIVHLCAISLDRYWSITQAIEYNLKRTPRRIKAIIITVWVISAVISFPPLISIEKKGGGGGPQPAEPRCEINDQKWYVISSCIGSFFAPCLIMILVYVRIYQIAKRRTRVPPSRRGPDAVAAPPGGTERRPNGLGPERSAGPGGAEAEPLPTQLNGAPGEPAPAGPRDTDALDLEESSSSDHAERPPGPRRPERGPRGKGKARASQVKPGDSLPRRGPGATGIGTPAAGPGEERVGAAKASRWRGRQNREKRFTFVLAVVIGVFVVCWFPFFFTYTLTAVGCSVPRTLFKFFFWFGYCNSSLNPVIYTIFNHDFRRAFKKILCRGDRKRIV
168 GPCRs (Homo sapiens, UniProt P25024), sequence (P25024 whole entry): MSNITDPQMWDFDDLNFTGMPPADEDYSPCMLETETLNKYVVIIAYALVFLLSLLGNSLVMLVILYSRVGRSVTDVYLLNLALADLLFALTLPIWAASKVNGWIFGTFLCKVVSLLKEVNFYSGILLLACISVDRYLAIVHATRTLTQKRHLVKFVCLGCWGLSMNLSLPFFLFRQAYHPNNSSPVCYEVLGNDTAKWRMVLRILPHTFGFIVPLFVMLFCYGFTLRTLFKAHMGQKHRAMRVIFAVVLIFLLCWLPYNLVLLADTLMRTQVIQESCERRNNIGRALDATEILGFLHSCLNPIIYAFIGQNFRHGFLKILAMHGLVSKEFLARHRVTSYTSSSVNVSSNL
168 GPCRs (Homo sapiens, UniProt P32238), sequence (P32238 whole entry): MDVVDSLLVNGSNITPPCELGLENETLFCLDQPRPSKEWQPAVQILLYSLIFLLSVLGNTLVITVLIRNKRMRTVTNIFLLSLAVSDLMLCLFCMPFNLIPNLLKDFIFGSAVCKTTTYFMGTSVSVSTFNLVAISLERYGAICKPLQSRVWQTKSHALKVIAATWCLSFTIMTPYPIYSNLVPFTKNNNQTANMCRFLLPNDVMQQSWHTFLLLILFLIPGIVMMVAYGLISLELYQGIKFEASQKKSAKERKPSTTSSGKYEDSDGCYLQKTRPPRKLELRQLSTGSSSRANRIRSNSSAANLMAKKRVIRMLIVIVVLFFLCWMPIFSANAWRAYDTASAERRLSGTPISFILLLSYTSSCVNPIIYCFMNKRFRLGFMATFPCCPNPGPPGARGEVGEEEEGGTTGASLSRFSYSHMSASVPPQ

In the case of `CNC(C)C(=O)c1ccc2c(c1)OCO2` (stereo not drawn) [methylone, 3,4-methylenedioxy-N-methylcathinone], the activity at 10 µM (168 GPCRs [1]; CXCR1, Agonist mode, 10 uM) is reported as 0.1%, the activity at 1 µM (168 GPCRs [1]; CXCR1, Agonist, 1 uM) is reported as -0.5% and the activity at 1 µM (168 GPCRs [2]; 1 uM) is reported as 0.1%. It also gave an activity at 10 µM (168 GPCRs [2]; 10 uM) of 0.3%, an activity at 1 µM (168 GPCRs [3]; 1 uM) of -9.1% and an activity at 10 µM (168 GPCRs [3]; 10 uM) of 8.5%. For the same molecule, the activity at 10 µM (168 GPCRs [4]; Agonist mode, 10 uM) was -4.4%, the activity at 1 µM (168 GPCRs [4]; Agonist, 1 uM) was -2.6% and the activity at 1 µM (168 GPCRs [5]; CALCRL-RAMP1, read-out: % Activity) was -2.6%. The activity at 10 µM (168 GPCRs [5]; CALCRL-RAMP1) was -0.2%, the activity at 1 µM (168 GPCRs [5]; CALCRL-RAMP2) was 0.1% and the activity at 10 µM (168 GPCRs [5]; CALCRL-RAMP2) was 2.8%. It also gave an activity at 1 µM (168 GPCRs [5]; CALCRL-RAMP3, read-out: % Activity) of -2.2%, an activity at 10 µM (168 GPCRs [5]; CALCRL-RAMP3) of 2.2% and an activity at 10 µM (168 GPCRs [6]; GPR120, Agonist mode, 10 uM) of -5.8%. For the same molecule, the activity at 1 µM (168 GPCRs [6]; GPR120, Agonist, 1 uM) was -5.1%, the activity at 10 µM (168 GPCRs [7]; CXCR3, Agonist mode, 10 uM) was 1.6% and the activity at 1 µM (168 GPCRs [7]; CXCR3, Agonist, 1 uM) was -0.2%. It also gave an activity at 10 µM (168 GPCRs [8]; RXFP3, Agonist mode, 10 uM) of -8.7%, an activity at 1 µM (168 GPCRs [8]; RXFP3, Agonist, 1 uM) of -7.6% and an activity at 1 µM (168 GPCRs [9]; 1 uM) of -3.8%. For the same molecule, the activity at 10 µM (168 GPCRs [9]; 10 uM) was -3.8%, the “MBP expression, basolateral nucleus of the amygdala, vs. vehicle” value [10] was “significant reduction in MBP” and the “MBP expression, central nucleus of the amygdala, vs. vehicle” value [10] was “significant reduction in MBP”. For the same molecule, the “MBP expression, cortex (control region)” value [10] was “No change in MBP”, the “type of interaction at the SERT” value ([11]; [3H]5HT saturation curves) was “competitive” and the “effect on Bmax of [3H]5HT uptake” value [11] was “no decrease in Bmax”. The “effect on Kd of [3H]5HT uptake” value [11] was “right shifted”, the activity at 10 µM (168 GPCRs [12]; F2RL3, Antagonist mode, 10 uM) was -6.9% and the activity at 1 µM (168 GPCRs [12]; F2RL3, Antagonist, 1 uM) was -11.3%. For the same molecule, the activity at 10 µM (168 GPCRs [13]; PROKR1, Antagonist mode, 10 uM) was 3.3%, the “% Activity” value (168 GPCRs [13]; PROKR1, Antagonist) was 8.7% and the activity at 10 µM (168 GPCRs [14]; Antagonist mode, 10 uM) was 15.9%. The activity at 1 µM (168 GPCRs [14]; Antagonist, 1 uM) was 20.1%, the activity at 10 µM (168 GPCRs [15]; CXCR4, Antagonist mode, 10 uM) was -4.2% and the activity at 1 µM (168 GPCRs [15]; CXCR4, Antagonist, 1 uM) was 10.7%.
